The nature of series [1]: Hygroscopicity: moisture absorption on exposure to atmospheric / normal storage conditions, stability studies. To be noted: for hygroscopicity: normal storage conditions / stability studies. In kind it is physicochemical.
A short description of series [2]: Moisture content by Karl Fischer titration. In kind it is physicochemical. The protocol:
• Differential scanning calorimetry plots were recorded using the following instrument and parameters: • DSC821 e, Mettler Toledo • Sample weight: 8-10 mg • Temperature range: 25-300° C. • Heating rate: 10° C./min • Nitrogen 20.0 mL/min • Number of holes in the crucible: 1 (d) TGA analysis was carried out using Perkin Elmer Instrument (e) Moisture content determination was carried out by Karl-Fischer titration technique using Mettler instrument.

Regarding `Cc1ccc(-c2nc3ccc(C)cn3c2CC(=O)N(C)C)cc1` [Form A, zolpidem hemitartrate], in series [1] (after exposure to atmospheric conditions), the “moisture absorbed after exposure to atmospheric conditions” value is “up to 5 % w/w”. Besides, in series [1], the hygroscopicity result is “very hygroscopic”. Also, the “moisture content after absorption of water” value in series [2] (TGA and Karl Fischer analysis, after absorption of water) is given as “up to 5%”. Further, the “moisture content, initial” value in series [2] (TGA and Karl Fischer analysis, initially) was “about 1.0 % w/w”.
`Cc1ccc(-c2nc3ccc(C)cn3c2CC(=O)N(C)C)cc1` [Form I, zolpidem hemitartrate]: the hygroscopicity entry in series [1] is “non-hygroscopic”. Further, in series [2] (product of Example 3, dried at 45 to 50° C. under reduced pressure), the “Moisture Content” value is recorded as 2.33 % w/w.

The record behind these values is US20080262025A1, “Processes for the Preparation of Zolpidem and its Hemitartrate” (priority 2004, published 2008).
